In brackets after ≈: the same amount, converted by molar mass. Residues, ends and D or L forms follow the SMILES beside them.
Experiments:
Escherichia coli (K514) = assay type: cell-based; conditions: agar plate, cecropin P1 5 nanomoles/well (column head: 500p), 3 mm wells
Enterobacter cloacae = assay: Inhibition zone assay (agar plate); assay type: cell-based; conditions: agar plate, 3 mm wells
Klebsiella pneumoniae = assay: Inhibition zone assay (agar plate); assay type: cell-based; conditions: agar plate, 3 mm wells
Salmonella typhimurium = assay: Inhibition zone assay (agar plate); assay type: cell-based; conditions: agar plate, 3 mm wells
Salmonella typhi = assay type: cell-based; conditions: agar plate, cecropin P1 5 nanomoles/well (column head: 500p), 3 mm wells
Shigella dysenteriae = assay type: cell-based; conditions: agar plate, cecropin P1 5 nanomoles/well (column head: 500p), 3 mm wells
Yersinia enterocolitica = assay: Inhibition zone assay (agar plate); assay type: cell-based; conditions: 3 mm wells
Campylobacter jejuni = assay: Inhibition zone assay (agar plate); assay type: cell-based; conditions: cecropin P1 5 nanomoles/well (column head: 500p), 3 mm wells
[1] = test system: Acinetobacter calcoaceticus; assay: Inhibition zone assay (agar plate); assay type: cell-based; conditions: agar plate, 3 mm wells
[2] = test system: Agrobacterium tumefaciens; assay: Inhibition zone assay (agar plate); assay type: cell-based; conditions: agar plate, 3 mm wells
Legionella pneumophila = assay type: cell-based
Rhizobium meliloti = assay: Inhibition zone assay (agar plate); assay type: cell-based; conditions: 3 mm wells
Haemophilus influenzae = assay: Inhibition zone assay (agar plate); assay type: cell-based; conditions: 3 mm wells
Helicobacter pylori = assay type: cell-based; conditions: cecropin P1, 5 nanomoles/well
Neisseria gonorrhoeae = assay type: cell-based; conditions: cecropin P1, 5 nanomoles/well
N. meningiditis = assay type: cell-based; conditions: cecropin P1, 5 nanomoles/well
Gardnerella vaginalis = assay type: cell-based; conditions: cecropin P1, 5 nanomoles/well
Proteus mirabilis = assay type: cell-based; conditions: cecropin P1, 5 nanomoles/well
Xanthomonas maltophilia = assay type: cell-based; conditions: cecropin P1, 5 nanomoles/well
Haemophilus ducreyi = assay type: cell-based; conditions: cecropin P1, 5 nanomoles/well
[3] = test system: Bacteriodes melaninogenicus; assay type: cell-based; conditions: cecropin P1, 5 nanomoles/well
E. coli Apid^R [4] = assay: Minimal inhibitory concentration (liquid culture); assay type: cell-based; conditions: a-b = highest concentration with growth - lowest without growth
Source text: For details see `Experimental Procedures`.

[5] = test system: bacterial strains used in this study; assay: Minimal inhibitory concentration, inoculum effect; assay type: cell-based; conditions: any of the bacterial strains used
[6] = test system: E. coli strain 11775Apid^R; conditions: 11775Apid^R vs ATCC 11775; cited from earlier work
E. coli 11775 [7] = assay: Minimal inhibitory concentration (liquid culture); conditions: a-b = highest concentration with growth - lowest without growth
E. coli 23802 = assay: Minimal inhibitory concentration (liquid culture); conditions: inoculum 5000 CFU/ml; a-b = highest concentration with growth - lowest without growth
E. coli 25922 = assay: Minimal inhibitory concentration (liquid culture); conditions: inoculum 1100 CFU/ml; a-b = highest concentration with growth - lowest without growth
S. typhimurium = assay: Minimal inhibitory concentration (liquid culture); conditions: inoculum 8 × 10^6 CFU/ml; a-b = highest concentration with growth - lowest without growth
A. calcoaceticus = assay: Minimal inhibitory concentration (liquid culture); conditions: inoculum 16 × 10^6 CFU/ml; a-b = highest concentration with growth - lowest without growth
M. morganii = assay: Minimal inhibitory concentration (liquid culture); conditions: inoculum 400 CFU/ml; a-b = highest concentration with growth - lowest without growth
Y. enterocolitica = assay: Minimal inhibitory concentration (liquid culture); conditions: inoculum 5000 CFU/ml; a-b = highest concentration with growth - lowest without growth
[8] = test system: Escherichia coli (ATCC11775); assay: Inhibition zone assay (agar plate); assay type: cell-based; conditions: agar plate, 50 nanomoles/well, 3 mm wells
Erwinia amylovora = assay: Inhibition zone assay (agar plate); assay type: cell-based; conditions: agar plate, 50 nanomoles/well, 3 mm wells
Morganella morganii = assay: Inhibition zone assay (agar plate); assay type: cell-based; conditions: 50 nanomoles/well, 3 mm wells
Pseudomonas syringae = assay: Inhibition zone assay (agar plate); assay type: cell-based; conditions: agar plate, 50 nanomoles/well, 3 mm wells
E. coli 11775 [9] = conditions: against 10^7 cells/ml, parental strain ATCC 11775; cited from earlier work
E. coli Apid^R [10] = conditions: cited from earlier work
[11] = cecropin P1 5 nanomoles/well (column head: 500p)

Compound: CC[C@H](C)[C@H](NC(=O)CNC(=O)[C@H](CCC(=O)O)NC(=O)[C@H](CO)NC(=O)[C@@H](NC(=O)[C@H](CCCNC(=N)N)NC(=O)[C@H](CCCCN)NC(=O)[C@H](CCCCN)NC(=O)[C@H](C)NC(=O)[C@H](CO)NC(=O)[C@H](CC(N)=O)NC(=O)[C@H](CCC(=O)O)NC(=O)[C@H](CC(C)C)NC(=O)[C@H](CCCCN)NC(=O)[C@H](CCCCN)NC(=O)[C@H](C)NC(=O)[C@@H](NC(=O)[C@H](CCCCN)NC(=O)[C@H](CO)NC(=O)[C@H](CC(C)C)NC(=O)[C@H](Cc1c[nH]c2ccccc12)NC(=O)[C@@H](N)CO)[C@@H](C)O)[C@@H](C)CC)C(=O)N[C@@H](C)C(=O)N[C@H](C(=O)N[C@@H](C)C(=O)N[C@H](C(=O)N[C@@H](CCC(N)=O)C(=O)NCC(=O)NCC(=O)N1CCC[C@H]1C(=O)N[C@@H](CCCNC(=N)N)C(=O)O)[C@@H](C)CC)[C@@H](C)CC [CP-1, cecropin P1, reference compound] (H-SWLSKTAKKLENSAKKRISEGIAIAIQGGPR-OH)
- inhibition zone diameter (number of plus signs) (Escherichia coli (K514)): + ((+) 5-6 mm)
- inhibition zone diameter (number of plus signs) (Enterobacter cloacae; [11]): ++++ ((++++) 15-19 mm)
- inhibition zone diameter (number of plus signs) (Klebsiella pneumoniae; [11]): + ((+) 5-6 mm)
- inhibition zone diameter (number of plus signs) (Salmonella typhimurium; [11]): ++ ((++) 7-9 mm)
- inhibition zone diameter (number of plus signs) (Salmonella typhi): +++++ ((+++++) 20 or more min)
- inhibition zone diameter (number of plus signs) (Shigella dysenteriae): ++++ ((++++) 15-19 mm)
- inhibition zone diameter (number of plus signs) (Yersinia enterocolitica; [11]): +++++ ((+++++) 20 or more min)
- inhibition zone diameter (number of plus signs) (Campylobacter jejuni): +++ ((+++) 10-14 mm)
- inhibition zone diameter (number of plus signs) [1, 11]: ++ ((++) 7-9 mm)
- inhibition zone diameter (number of plus signs) [2, 11]: ++++ ((++++) 15-19 mm)
- inhibition zone diameter (number of plus signs) (Legionella pneumophila): +++++ (key: (+) 5-6 mm; (++) 7-9 mm; (+++) 10-14 mm; (++++) 15-19 mm; (+++++) 20 or more min; (-) denotes that no inhibition was observed)
- inhibition zone diameter (number of plus signs) (Rhizobium meliloti; [11]): + ((+) 5-6 mm)
- inhibition zone diameter (number of plus signs) (Haemophilus influenzae; [11]): ++++ ((++++) 15-19 mm)
- measurable activity on agar plate (Helicobacter pylori): not
- measurable activity on agar plate (Neisseria gonorrhoeae): not
- measurable activity on agar plate (N. meningiditis): not
- measurable activity on agar plate (Gardnerella vaginalis): not
- measurable activity on agar plate (Proteus mirabilis): not
- measurable activity on agar plate (Xanthomonas maltophilia): measurable activity
- measurable activity on agar plate (Haemophilus ducreyi): measurable activity
- measurable activity on agar plate [3]: measurable activity
- minimal inhibitory concentration (MIC) (E. coli Apid^R [4]; inoculum 12 × 10^6 CFU/ml): 0.2 to 1 µg/mL
- minimal inhibitory concentration (MIC) (E. coli Apid^R [4]; inoculum 1000 CFU/ml): 0.2 to 1 µg/mL
- inoculum effect [5]: No inoculum effect
- susceptibility of mutant compared to parental strain [6]: equally susceptible
- minimal inhibitory concentration (MIC) (E. coli 11775 [7]; inoculum 16 × 10^6 CFU/ml): 0.2 to 1 µg/mL
- minimal inhibitory concentration (MIC) (E. coli 11775 [7]; inoculum 1200 CFU/ml): 0.2 to 1 µg/mL
- minimal inhibitory concentration (MIC) (E. coli 23802): 0.2 to 1 µg/mL
- minimal inhibitory concentration (MIC) (E. coli 25922): 0.2 to 1 µg/mL
- minimal inhibitory concentration (MIC) (S. typhimurium): 1 to 2 µg/mL
- minimal inhibitory concentration (MIC) (A. calcoaceticus): 2 to 10 µg/mL
- minimal inhibitory concentration (MIC) (M. morganii): 0.2 to 1 µg/mL
- minimal inhibitory concentration (MIC) (Y. enterocolitica): 0.2 to 1 µg/mL

Compound: CC[C@H](C)[C@H](NC(=O)[C@H](Cc1ccc(O)cc1)NC(=O)[C@@H](NC(=O)[C@@H]1CCCN1C(=O)[C@H](CCCNC(=N)N)NC(=O)[C@H](CC(N)=O)NC(=O)[C@H](CC(N)=O)NC(=O)CN)C(C)C)C(=O)N1CCC[C@H]1C(=O)N[C@@H](CCC(N)=O)C(=O)N1CCC[C@H]1C(=O)N[C@@H](CCCNC(=N)N)C(=O)N1CCC[C@H]1C(=O)N1CCC[C@H]1C(=O)N[C@@H](Cc1c[nH]cn1)C(=O)N1CCC[C@H]1C(=O)N[C@@H](CCCNC(=N)N)C(=O)N[C@@H](CC(C)C)C(=O)O [Hb Ib, reference compound] (H-GNNRPVYIPQPRPPHPRL-OH)
- inhibition zone diameter (number of plus signs) [8]: ++++ ((++++) 15-19 mm)
- inhibition zone diameter (number of plus signs) (Enterobacter cloacae; 50 nanomoles/well): +++ ((+++) 10-14 mm)
- inhibition zone diameter (number of plus signs) (Erwinia amylovora): ++++ ((++++) 15-19 mm)
- inhibition zone diameter (number of plus signs) (Klebsiella pneumoniae; 50 nanomoles/well): +++ ((+++) 10-14 mm)
- inhibition zone diameter (number of plus signs) (Morganella morganii): + ((+) 5-6 mm)
- inhibition zone diameter (number of plus signs) (Salmonella typhimurium; 50 nanomoles/well): +++ ((+++) 10-14 mm)
- inhibition zone diameter (number of plus signs) (Yersinia enterocolitica; 50 nanomoles/well): +++ ((+++) 10-14 mm)
- inhibition zone diameter (number of plus signs) ([1]; 50 nanomoles/well): + ((+) 5-6 mm)
- inhibition zone diameter (number of plus signs) ([2]; 50 nanomoles/well): +++++ ((+++++) 20 or more min)
- inhibition zone diameter (number of plus signs) (Pseudomonas syringae): ++++ ((++++) 15-19 mm)
- inhibition zone diameter (number of plus signs) (Rhizobium meliloti; 50 nanomoles/well): +++++ ((+++++) 20 or more min)
- inhibition zone diameter (number of plus signs) (Haemophilus influenzae; 50 nanomoles/well): +++ ((+++) 10-14 mm)
- minimal inhibitory concentration (MIC) (E. coli Apid^R [4]; inoculum 12 × 10^6 CFU/ml): > 40 µg/mL
- minimal inhibitory concentration (MIC) (E. coli Apid^R [4]; inoculum 1000 CFU/ml): 20 to 40 µg/mL
- MIC value (E. coli 11775 [9]): 0.1 µg/mL (≈ 0.0474 µM)
- resistance of mutant relative to parental strain (higher apidaecin concentrations) (E. coli Apid^R [10]; 11775Apid^R vs ATCC 11775): approximately 500 fold
- MIC value (E. coli Apid^R [10]; against 10^7 cells/ml, mutant strain 11775Apid^R): 50 µg/mL (≈ 23.7 µM)
- minimal inhibitory concentration (MIC) (E. coli 11775 [7]; inoculum 16 × 10^6 CFU/ml): 1 to 5 µg/mL
- minimal inhibitory concentration (MIC) (E. coli 11775 [7]; inoculum 1200 CFU/ml): < 0.05 µg/mL
- minimal inhibitory concentration (MIC) (E. coli 23802): 10 to 20 µg/mL
- minimal inhibitory concentration (MIC) (E. coli 25922): 0.5 to 1 µg/mL
- minimal inhibitory concentration (MIC) (S. typhimurium): 1 to 5 µg/mL
- minimal inhibitory concentration (MIC) (A. calcoaceticus): 10 to 20 µg/mL
- minimal inhibitory concentration (MIC) (M. morganii): 1 to 5 µg/mL
- minimal inhibitory concentration (MIC) (Y. enterocolitica): 1 to 5 µg/mL

From patent US5466671A, “Apidaecin-type peptide antibiotics with improved activities and/or different antibacterial spectrum” (priority 1994, dated 1995)
